Reference: paper PMC8058351, “Discovery of Kasugamycin as a Potent Inhibitor of Glycoside Hydrolase Family 18 Chitinases” (Frontiers in Molecular Biosciences, 2021)

Legend:
[1] = target: T1, AMCase (Homo sapiens, UniProt Q9BZP6); assay: Inhibitory activity determination with MU-β-(GlcNAc)2, Dixon plots; assay type: biochemical
T1 construct: the catalytic domains of OfChtI from Ostrinia furnacalis (O. furnacalis), human HsCht and acidic mammalian chitinase (AMCase); made in house; host or cells: Pichia pastoris GS115 (secreted)
T1 sequence (Q9BZP6 22-390 limits assumed): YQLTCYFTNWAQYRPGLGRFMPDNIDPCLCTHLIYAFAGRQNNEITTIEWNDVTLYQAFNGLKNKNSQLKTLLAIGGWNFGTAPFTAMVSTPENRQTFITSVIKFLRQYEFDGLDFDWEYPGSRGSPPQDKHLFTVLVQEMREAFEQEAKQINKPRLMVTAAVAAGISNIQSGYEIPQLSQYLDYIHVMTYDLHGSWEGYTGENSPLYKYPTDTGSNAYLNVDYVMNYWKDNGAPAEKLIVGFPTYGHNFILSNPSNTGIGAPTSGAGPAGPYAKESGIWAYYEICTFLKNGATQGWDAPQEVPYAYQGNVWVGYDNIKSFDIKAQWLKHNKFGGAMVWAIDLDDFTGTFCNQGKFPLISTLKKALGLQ
Description: (§1) The recombinant GH18 chitinases for inhibitory activity evaluation including OfChi-h and the catalytic domains of OfChtI from Ostrinia furnacalis (O. furnacalis), human HsCht and acidic mammalian chitinase (AMCase) were extracellularly expressed in Pichia pastoris GS115. SmChiA from Serratia marcescens was expressed in Escherichia coli BL21 (DE3). All the proteins were purified from the culture medium by immobilized metal affinity chromatography (IMAC) as described previously ([Chen et al., 2014]). The purities of the target proteins were analyzed by SDS-PAGE followed by Coomassie Brilliant Blue R-250 staining.
(§2) 20 nM enzyme was incubated with 10 μL substrate [0.2 μM MU-β-(GlcNAc)2] in 20 mM sodium phosphate buffer (pH 6.0 for OfChi-h, OfChtI, HsCht and SmChiA, and pH 5.2 for AMCase) containing 2 μL inhibitor at 30°C. The reaction in the absence of inhibitor and substrate was used as the control. After 30 min, an equal volume of 0.5 M Na2CO3 was added to the reaction mixture to stop the reaction, and the fluorescence of the released MU was quantitated using an Infinite® 200 PRO microplate reader (Tecan, Swiss) with excitation and emission wavelengths of 360 and 450 nm, respectively. Experiments were performed in triplicate. For the determination of the mode of inhibition and the inhibition constant (K i) value, the reaction mixtures contained three MU-β-(GlcNAc)2 concentrations (5, 10 and 20 μM for OfChi-h, AMCase and SmChiA; 5, 7.5 and 10 μM for HsCht; and 1, 2 and 4 μM for OfChtI). The inhibitor concentration varied according to the inhibitory activity. The Ki values and types of inhibition were determined by linear fitting of data in Dixon plots.

[2] = target: T2, HsCht (Homo sapiens, UniProt Q13231); assay: as above; assay type: biochemical
T2 construct: the catalytic domains of OfChtI from Ostrinia furnacalis (O. furnacalis), human HsCht and acidic mammalian chitinase (AMCase); made in house; host or cells: Pichia pastoris GS115 (secreted)
T2 sequence (Q13231 22-388 limits assumed): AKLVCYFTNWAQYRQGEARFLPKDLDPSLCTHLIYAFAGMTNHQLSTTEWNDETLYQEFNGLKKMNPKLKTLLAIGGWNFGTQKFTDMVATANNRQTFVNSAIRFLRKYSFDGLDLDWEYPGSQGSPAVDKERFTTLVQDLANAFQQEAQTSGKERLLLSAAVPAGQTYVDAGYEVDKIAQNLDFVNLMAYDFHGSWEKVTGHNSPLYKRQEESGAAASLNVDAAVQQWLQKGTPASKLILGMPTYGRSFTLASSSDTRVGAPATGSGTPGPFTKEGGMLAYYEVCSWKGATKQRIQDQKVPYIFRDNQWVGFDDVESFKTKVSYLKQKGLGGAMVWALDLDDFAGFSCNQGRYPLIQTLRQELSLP
Description: as §1, §2

[3] = target: T3, OfChi-h (Ostrinia furnacalis, UniProt Q4AE59); assay: as above; assay type: biochemical
T3 construct: made in house; host or cells: Pichia pastoris GS115 (secreted)
T3 sequence (Q4AE59 18-553): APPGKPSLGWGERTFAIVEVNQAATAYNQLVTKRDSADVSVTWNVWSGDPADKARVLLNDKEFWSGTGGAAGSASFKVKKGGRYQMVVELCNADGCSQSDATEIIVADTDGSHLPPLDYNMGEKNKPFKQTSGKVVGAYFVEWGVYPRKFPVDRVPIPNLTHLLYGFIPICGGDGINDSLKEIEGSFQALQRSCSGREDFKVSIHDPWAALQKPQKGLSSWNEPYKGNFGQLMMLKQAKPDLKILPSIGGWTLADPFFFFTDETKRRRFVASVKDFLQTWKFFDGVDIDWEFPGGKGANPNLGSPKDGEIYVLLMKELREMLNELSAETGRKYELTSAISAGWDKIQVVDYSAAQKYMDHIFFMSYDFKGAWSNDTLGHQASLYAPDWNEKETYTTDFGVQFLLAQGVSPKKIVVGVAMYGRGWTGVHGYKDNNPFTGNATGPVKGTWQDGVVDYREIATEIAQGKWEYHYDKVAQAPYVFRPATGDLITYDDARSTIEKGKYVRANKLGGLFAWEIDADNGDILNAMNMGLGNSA
Description: as §1, §2

[4] = target: T4, OfChtI (Ostrinia furnacalis, UniProt Q2V6H4); assay: as above; assay type: biochemical
T4 sequence (Q2V6H4 19-407): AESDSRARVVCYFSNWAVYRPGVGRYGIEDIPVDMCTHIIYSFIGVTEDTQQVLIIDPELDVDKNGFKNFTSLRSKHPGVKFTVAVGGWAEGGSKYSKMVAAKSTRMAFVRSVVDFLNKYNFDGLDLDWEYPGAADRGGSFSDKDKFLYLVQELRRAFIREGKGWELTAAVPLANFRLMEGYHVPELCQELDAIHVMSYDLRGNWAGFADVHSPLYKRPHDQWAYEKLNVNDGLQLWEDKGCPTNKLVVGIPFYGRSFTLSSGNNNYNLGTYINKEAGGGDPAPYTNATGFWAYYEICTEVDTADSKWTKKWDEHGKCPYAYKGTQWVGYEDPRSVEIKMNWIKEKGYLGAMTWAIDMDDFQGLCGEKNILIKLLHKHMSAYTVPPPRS
Description: as §1, §2

[5] = target: T5, SmChiA (Serratia marcescens, UniProt P07254); assay: as above; assay type: biochemical
T5 construct: made in house; host or cells: Escherichia coli BL21 (DE3)
T5 sequence (P07254 24-563): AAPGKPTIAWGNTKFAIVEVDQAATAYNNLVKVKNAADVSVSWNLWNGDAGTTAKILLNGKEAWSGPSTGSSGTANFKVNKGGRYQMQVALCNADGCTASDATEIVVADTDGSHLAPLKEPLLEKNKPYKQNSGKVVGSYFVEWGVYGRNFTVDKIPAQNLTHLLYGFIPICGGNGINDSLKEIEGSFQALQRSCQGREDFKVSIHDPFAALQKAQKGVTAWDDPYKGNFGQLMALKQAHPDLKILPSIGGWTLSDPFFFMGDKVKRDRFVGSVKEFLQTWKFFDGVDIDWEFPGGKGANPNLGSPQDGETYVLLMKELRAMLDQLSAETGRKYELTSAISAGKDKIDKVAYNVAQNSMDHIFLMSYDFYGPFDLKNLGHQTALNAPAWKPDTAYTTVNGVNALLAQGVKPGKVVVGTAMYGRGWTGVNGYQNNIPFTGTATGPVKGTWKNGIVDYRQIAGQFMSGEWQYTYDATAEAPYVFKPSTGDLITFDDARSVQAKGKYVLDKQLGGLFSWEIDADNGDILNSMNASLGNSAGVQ
Description: as §1, §2

[6] = target: T1, AMCase; assay: Tryptophan fluorescence quenching spectroscopy; assay type: binding
Description: as §1
(§3) All tryptophan fluorescence spectroscopy experiments were performed using the Infinite® 200 PRO microplate reader (Tecan, Swiss). The excitation wavelength was fixed to 285 nm and emission spectra were collected between 320 and 450 nm with a slit width of 2 nm. The temperature was maintained at 30°C. Fluorescence quenching experiments were performed in a 100 μL mixture containing 1 μM protein in the 20 mM sodium phosphate buffer (pH 6.0 for OfChi-h, OfChtI, HsCht and SmChiA, and pH 5.2 for AMCase), and by the successive addition of 1 μL compounds stock solution. The inhibitor concentration varied according to the enzyme activity. The dissociation constant (K d) value was analyzed by nonlinear regression with the “One Site-Specific Binding” model using GraphPad Prism 7.04.

[7] = target: T2, HsCht; assay: Tryptophan fluorescence quenching spectroscopy; assay type: binding
Description: as §1, §3

[8] = target: T3, OfChi-h; assay: Tryptophan fluorescence quenching spectroscopy; assay type: binding
Description: as §1, §3

[9] = target: T4, OfChtI; assay: Tryptophan fluorescence quenching spectroscopy; assay type: binding
Description: as §1, §3

[10] = target: T5, SmChiA; assay: Tryptophan fluorescence quenching spectroscopy; assay type: binding
Description: as §1, §3

## C[C@H]1O[C@H](O[C@H]2[C@H](O)[C@@H](O)[C@@H](O)[C@H](O)[C@@H]2O)[C@@H](N)C[C@@H]1NC(=N)C(=O)O [kasugamycin, Kasugamycin]
[1]
  Ki: 6.27 µM
[1]; AMCase, inhibition kinetics
  mode of inhibition: competitive
[2]; 1.0 M NaCl vs. standard buffer
  increase of K i in buffer containing 1.0 M NaCl: 6 fold
[2]; K i in the buffer with 1.0 M NaCl, buffer containing 1.0 M NaCl
  Ki: 1.62 µM
[2]; K i, 20 mM sodium phosphate buffer pH 6.0, 30°C
  Ki: 0.25 µM
[2]; inhibition kinetics
  mode of inhibition: competitive
[3]
  Ki: 2.7 µM
[3]; OfChi-h, inhibition kinetics
  mode of inhibition: competitive
[4]
  Ki: 0.47 µM
[4]; OfChtI, inhibition kinetics
  mode of inhibition: competitive
[4]; at 10 μM, preliminary screening of a natural products library, read-out: inhibition against OfChtI
  inhibition at 10 µM: 92.5%
[5]
  Ki: 29 µM
[5]; SmChiA, inhibition kinetics
  mode of inhibition: competitive
[6]
  Kd: 15.8 µM
[7]
  Kd: 0.92 µM
[8]
  Kd: 11.5 µM
[9]
  Kd: 3.96 µM
[10]
  Kd: 34.1 µM
